According to paper PMC5218480 (PLoS ONE, 2017):

Test system: MV-4-11 cells
Assay: Gene expression microarray analysis (Affymetrix PrimeView) and GSEA
Assay type: cell-based, human
Parameters: RFU PODN (11730768_x_at) / Fold change /veh PODN (11730768_x_at) / RFU LINC00158 (11744669_a_at) / Fold change /veh LINC00158 (11744669_a_at) / RFU DUSP10 (11751237_a_at) / Fold change /veh DUSP10 (11751237_a_at) / RFU ID3 (11757404_x_at) / Fold change /veh ID3 (11757404_x_at) / RFU PLEKHG5 (11737974_s_at) / Fold change /veh PLEKHG5 (11737974_s_at) / RFU LRRC4B (11730491_at) / Fold change /veh LRRC4B (11730491_at) / RFU GIMAP4 (11747438_a_at) / Fold change /veh GIMAP4 (11747438_a_at) / RFU KRT8 (11758183_x_at) / Fold change /veh KRT8 (11758183_x_at) / RFU CNN1 (11734310_a_at) / Fold change /veh CNN1 (11734310_a_at) / RFU VPS37D (11726825_at) / Fold change /veh VPS37D (11726825_at) / RFU C10orf10 (11716522_x_at) / Fold change /veh C10orf10 (11716522_x_at) / RFU KIR2DL2 /// KIR2DL4 /// KIR2DL5A /// KIR2DL5B /// KIR2DS1 /// KIR2DS2 /// KIR2DS3 /// KIR2DS4 /// KIR3DL3 /// KIR3DL3 /// KIR3DS1 (11738374_at) / Fold change /veh KIR2DL2 /// KIR2DL4 /// KIR2DL5A /// KIR2DL5B /// KIR2DS1 /// KIR2DS2 /// KIR2DS3 /// KIR2DS4 /// KIR3DL3 /// KIR3DL3 /// KIR3DS1 (11738374_at) / RFU C1QL1 (11718748_at) / Fold change /veh C1QL1 (11718748_at) / RFU TMPRSS4 (11747572_a_at) / Fold change /veh TMPRSS4 (11747572_a_at) / RFU HAMP (11756126_x_at) / Fold change /veh HAMP (11756126_x_at) / RFU RNFT2 (11725882_a_at) / Fold change /veh RNFT2 (11725882_a_at) / RFU NR4A2 (11747474_a_at) / Fold change /veh NR4A2 (11747474_a_at) / RFU ABCC12 (11746883_a_at) / Fold change /veh ABCC12 (11746883_a_at) / RFU TMEM136 (11760407_x_at) / Fold change /veh TMEM136 (11760407_x_at) / RFU CLDN22 /// WWC2 (11732394_at) / Fold change /veh CLDN22 /// WWC2 (11732394_at) / RFU HLA-DPB1 (11760878_x_at) / Fold change /veh HLA-DPB1 (11760878_x_at) / RFU SPINT1 (11716480_a_at) / Fold change /veh SPINT1 (11716480_a_at) / RFU GAP43 (11754022_s_at) / Fold change /veh GAP43 (11754022_s_at) / RFU A4GNT (11735810_at) / Fold change /veh A4GNT (11735810_at) / RFU PRB3 (11715151_x_at) / Fold change /veh PRB3 (11715151_x_at) / RFU TUBB4B (11761932_at) / Fold change /veh TUBB4B (11761932_at) / RFU CAPN14 (11732068_a_at) / Fold change /veh CAPN14 (11732068_a_at) / RFU TMCC2 (11721928_a_at) / Fold change /veh TMCC2 (11721928_a_at) / RFU IRGQ (11745062_a_at) / Fold change /veh IRGQ (11745062_a_at) / RFU FAM174B (11720279_a_at) / Fold change /veh FAM174B (11720279_a_at) / RFU TMPRSS4 (11748680_a_at) / Fold change /veh TMPRSS4 (11748680_a_at) / RFU FAM212B (11763350_a_at) / Fold change /veh FAM212B (11763350_a_at) / RFU PLEKHG5 (11743358_a_at) / Fold change /veh PLEKHG5 (11743358_a_at) / RFU ZSCAN30 (11745921_a_at) / Fold change /veh ZSCAN30 (11745921_a_at) / RFU CMKLR1 (11741424_a_at) / Fold change /veh CMKLR1 (11741424_a_at) / RFU LOC101060620 /// MAPK8IP1 (11723275_at) / Fold change /veh LOC101060620 /// MAPK8IP1 (11723275_at) / RFU SPTSSB (11747773_x_at) / Fold change /veh SPTSSB (11747773_x_at) / RFU PRSS12 (11739890_at) / Fold change /veh PRSS12 (11739890_at) / RFU BIN1 (11741810_x_at) / Fold change /veh BIN1 (11741810_x_at) / RFU WNT11 (11732464_a_at) / Fold change /veh WNT11 (11732464_a_at) / RFU C10orf10 (11716521_a_at) / Fold change /veh C10orf10 (11716521_a_at) / RFU C5orf56 (11738089_at) / Fold change /veh C5orf56 (11738089_at) / RFU CYB561 (11721691_x_at) / Fold change /veh CYB561 (11721691_x_at) / RFU ANKRD19P (11752326_a_at) / Fold change /veh ANKRD19P (11752326_a_at) / RFU OR2T12 /// OR2T33 /// OR2T8 (11738714_s_at) / Fold change /veh OR2T12 /// OR2T33 /// OR2T8 (11738714_s_at) / RFU VCAN (11748164_a_at) / Fold change /veh VCAN (11748164_a_at) / RFU JSRP1 (11732532_at) / Fold change /veh JSRP1 (11732532_at) / RFU KRTAP10-11 (11738290_x_at) / Fold change /veh KRTAP10-11 (11738290_x_at) / RFU MYO3A (11730013_a_at) / Fold change /veh MYO3A (11730013_a_at) / RFU EBF3 (11725865_a_at) / Fold change /veh EBF3 (11725865_a_at) / RFU CAMK2N1 (11719241_x_at) / Fold change /veh CAMK2N1 (11719241_x_at) / RFU C5orf56 (11738088_a_at) / Fold change /veh C5orf56 (11738088_a_at) / RFU OLFML3 (11715873_a_at) / Fold change /veh OLFML3 (11715873_a_at) / RFU LOC100653217 /// NTM (11731650_a_at) / Fold change /veh LOC100653217 /// NTM (11731650_a_at) / RFU MAPK11 (11762145_a_at) / Fold change /veh MAPK11 (11762145_a_at) / RFU FIZ1 (11724087_x_at) / Fold change /veh FIZ1 (11724087_x_at) / RFU OASL (11726364_x_at) / Fold change /veh OASL (11726364_x_at) / RFU SOX15 (11748057_x_at) / Fold change /veh SOX15 (11748057_x_at) / RFU CD79A (11719716_a_at) / Fold change /veh CD79A (11719716_a_at) / RFU HIST1H1D (11736915_at) / Fold change /veh HIST1H1D (11736915_at) / RFU CASKIN2 (11723855_a_at) / Fold change /veh CASKIN2 (11723855_a_at) / RFU LOC730098 (11760151_x_at) / Fold change /veh LOC730098 (11760151_x_at) / RFU OR4N2 (11742367_at) / Fold change /veh OR4N2 (11742367_at) / RFU PRRT2 (11749266_a_at) / Fold change /veh PRRT2 (11749266_a_at) / RFU SNX32 (11753110_a_at) / Fold change /veh SNX32 (11753110_a_at) / RFU CDHR5 (11726645_a_at) / Fold change /veh CDHR5 (11726645_a_at) / RFU RCAN1 (11760418_a_at) / Fold change /veh RCAN1 (11760418_a_at) / RFU FAM167A (11723789_a_at) / Fold change /veh FAM167A (11723789_a_at) / RFU FAM26E (11764081_at) / Fold change /veh FAM26E (11764081_at) / RFU ISYNA1 (11749810_s_at) / Fold change /veh ISYNA1 (11749810_s_at) / RFU ACY1 (11761880_at) / Fold change /veh ACY1 (11761880_at) / RFU 11764098_at / Fold change /veh 11764098_at / RFU SAMD14 (11745864_x_at) / Fold change /veh SAMD14 (11745864_x_at) / RFU NPB (11741838_a_at) / Fold change /veh NPB (11741838_a_at) / RFU TMPRSS6 (11731388_a_at) / Fold change /veh TMPRSS6 (11731388_a_at) / RFU KRTAP10-2 (11738614_at) / Fold change /veh KRTAP10-2 (11738614_at) / RFU ARHGAP8 /// PRR5-ARHGAP8 (11727945_x_at) / Fold change /veh ARHGAP8 /// PRR5-ARHGAP8 (11727945_x_at) / RFU KRTAP5-7 /// NADSYN1 (11734609_at) / Fold change /veh KRTAP5-7 /// NADSYN1 (11734609_at) / RFU RASL12 (11751679_a_at) / Fold change /veh RASL12 (11751679_a_at) / RFU CDKN2B (11736163_a_at) / Fold change /veh CDKN2B (11736163_a_at) / RFU PRF1 (11729649_at) / Fold change /veh PRF1 (11729649_at) / RFU, ZNF638 /// ZNF638-IT1 / Fold change vs veh, ZNF638 /// ZNF638-IT1 / RFU, PANK3 / Fold change vs veh, PANK3 / RFU, SH3YL1 / Fold change vs veh, SH3YL1 / RFU, ZEB2 / Fold change vs veh, ZEB2 / RFU, NRIP1 / Fold change vs veh, NRIP1 / RFU, PTTG1IP / Fold change vs veh, PTTG1IP / RFU, CAPN2 / Fold change vs veh, CAPN2 / RFU, MED14 / Fold change vs veh, MED14 / RFU, SNORA58 / Fold change vs veh, SNORA58 / RFU, C1orf63 / Fold change vs veh, C1orf63 / RFU, LRRFIP1 / Fold change vs veh, LRRFIP1 / RFU, NDUFAF7 / Fold change vs veh, NDUFAF7 / RFU, SLC12A2 / Fold change vs veh, SLC12A2 / RFU, IBTK / Fold change vs veh, IBTK / RFU, ESF1 / Fold change vs veh, ESF1 / Fold change vs veh, TMEM50B / RFU, TAOK1 / Fold change vs veh, TAOK1 / RFU, ACBD3 / Fold change vs veh, ACBD3 / RFU, TMA16 / Fold change vs veh, TMA16 / RFU, RWDD3 / Fold change vs veh, RWDD3 / RFU, BCAT1 / Fold change vs veh, BCAT1 / RFU, EDEM3 / Fold change vs veh, EDEM3 / RFU, TMEM33 / Fold change vs veh, TMEM33 / RFU, WDR75 / Fold change vs veh, WDR75 / RFU, AHCTF1 / Fold change vs veh, AHCTF1 / RFU, TFRC / Fold change vs veh, TFRC / RFU, ZDHHC17 / Fold change vs veh, ZDHHC17 / RFU, NOM1 / Fold change vs veh, NOM1 / RFU, ARL8B / Fold change vs veh, ARL8B / RFU, ZBTB11 / Fold change vs veh, ZBTB11 / RFU, TAMM41 / Fold change vs veh, TAMM41 / RFU, KIAA1704 /// LOC100996395 / Fold change vs veh, KIAA1704 /// LOC100996395 / RFU, ING1 / Fold change vs veh, ING1 / RFU, TRMT61B / Fold change vs veh, TRMT61B / RFU, FUBP3 / Fold change vs veh, FUBP3 / RFU, TP53 / Fold change vs veh, TP53 / RFU, TNKS2 / Fold change vs veh, TNKS2 / RFU, ZFP14 / Fold change vs veh, ZFP14 / RFU, ACTR2 / Fold change vs veh, ACTR2 / RFU, PPP3R1 / Fold change vs veh, PPP3R1 / RFU, PIK3R1 / Fold change vs veh, PIK3R1 / RFU, HNRNPA1 / Fold change vs veh, HNRNPA1 / RFU, RNF170 / Fold change vs veh, RNF170 / RFU, ZNF28 / Fold change vs veh, ZNF28 / RFU, RNGTT / Fold change vs veh, RNGTT / RFU, OGT / Fold change vs veh, OGT / RFU, BRD1 / Fold change vs veh, BRD1 / RFU, MARS / Fold change vs veh, MARS / RFU, ZNF655 / Fold change vs veh, ZNF655 / RFU, FAHD1 / Fold change vs veh, FAHD1 / RFU, BDP1 / Fold change vs veh, BDP1 / RFU, LRRCC1 / Fold change vs veh, LRRCC1 / RFU, ARID1A / Fold change vs veh, ARID1A / RFU, ZNF146 / Fold change vs veh, ZNF146 / RFU, ZNF330 / Fold change vs veh, ZNF330 / RFU, GPN3 / Fold change vs veh, GPN3 / RFU, C9orf123 / Fold change vs veh, C9orf123 / RFU, N4BP2L2 / Fold change vs veh, N4BP2L2 / RFU, ARFIP1 / Fold change vs veh, ARFIP1 / RFU, FAM179B / Fold change vs veh, FAM179B / RFU, BCL10 / Fold change vs veh, BCL10 / RFU, UHRF1BP1L / Fold change vs veh, UHRF1BP1L / RFU, BET1 / Fold change vs veh, BET1 / RFU, CNOT2 / Fold change vs veh, CNOT2 / RFU, ZNF268 / Fold change vs veh, ZNF268 / Fold change vs veh, ZNF507 / RFU, DGCR2 / Fold change vs veh, DGCR2 / RFU, WDSUB1 / Fold change vs veh, WDSUB1 / Fold change vs veh, HSP90B1 /// MIR3652 / RFU, ADSS / Fold change vs veh, ADSS / RFU, GK / Fold change vs veh, GK / RFU, ZNF148 / Fold change vs veh, ZNF148 / RFU, TAF9 / Fold change vs veh, TAF9 / RFU, SLC1A5 / Fold change vs veh, SLC1A5 / RFU, SLMO2 / Fold change vs veh, SLMO2 / RFU, ABCC4 / Fold change vs veh, ABCC4 / RFU, LOC101060439 /// RAP1B / Fold change vs veh, LOC101060439 /// RAP1B / RFU, RFX7 / Fold change vs veh, RFX7 / RFU, GTPBP10 / Fold change vs veh, GTPBP10 / RFU, CNEP1R1 / Fold change vs veh, CNEP1R1 / RFU, BIVM-ERCC5 /// ERCC5 / Fold change vs veh, BIVM-ERCC5 /// ERCC5 / RFU, ILF3 / Fold change vs veh, ILF3 / RFU 11762660_at / Fold change /veh 11762660_at / RFU VCAN (11757783_s_at) / Fold change /veh VCAN (11757783_s_at) / RFU DDX43 (11728927_at) / Fold change /veh DDX43 (11728927_at) / RFU KRT8 (11758188_x_at) / Fold change /veh KRT8 (11758188_x_at) / RFU NKD1 (11759106_at) / Fold change /veh NKD1 (11759106_at) / RFU SRD5A1 (11742802_a_at) / Fold change /veh SRD5A1 (11742802_a_at) / RFU TPSAB1 /// TPSB2 (11721975_s_at) / Fold change /veh TPSAB1 /// TPSB2 (11721975_s_at) / RFU GSTM3 (11746129_a_at) / Fold change /veh GSTM3 (11746129_a_at) / RFU IL23R (11737362_x_at) / Fold change /veh IL23R (11737362_x_at) / RFU TMEM51 (11727254_a_at) / Fold change /veh TMEM51 (11727254_a_at) / RFU PIWIL2 (11732686_x_at) / Fold change /veh PIWIL2 (11732686_x_at) / RFU ORM1 (11744905_x_at) / Fold change /veh ORM1 (11744905_x_at) / RFU CCDC152 (11743942_at) / Fold change /veh CCDC152 (11743942_at) / RFU ECM1 (11717891_a_at) / Fold change /veh ECM1 (11717891_a_at) / RFU IL23R (11748794_a_at) / Fold change /veh IL23R (11748794_a_at) / RFU TNFAIP8L3 (11732012_x_at) / Fold change /veh TNFAIP8L3 (11732012_x_at) / RFU MBOAT4 (11741988_at) / Fold change /veh MBOAT4 (11741988_at) / RFU 11764193_at / Fold change /veh 11764193_at / RFU TMEM53 (11763286_at) / Fold change /veh TMEM53 (11763286_at) / RFU MAGEB2 (11727129_at) / Fold change /veh MAGEB2 (11727129_at) / RFU TMEM200A (11744735_a_at) / Fold change /veh TMEM200A (11744735_a_at) / RFU CCDC152 (11751479_a_at) / Fold change /veh CCDC152 (11751479_a_at) / RFU FAM211A (11726209_a_at) / Fold change /veh FAM211A (11726209_a_at) / RFU RGS16 (11746705_a_at) / Fold change /veh RGS16 (11746705_a_at) / RFU VCAN (11755009_s_at) / Fold change /veh VCAN (11755009_s_at) / RFU RHOB (11743442_s_at) / Fold change /veh RHOB (11743442_s_at) / RFU RGS16 (11720943_a_at) / Fold change /veh RGS16 (11720943_a_at) / RFU RGS16 (11720944_at) / Fold change /veh RGS16 (11720944_at) / RFU, VPS4B / Fold change vs veh, VPS4B / RFU, CREB1 / Fold change vs veh, CREB1 / RFU, DNAJC13 / Fold change vs veh, DNAJC13 / RFU, GNAQ / Fold change vs veh, GNAQ / RFU, CDK5R1 / Fold change vs veh, CDK5R1 / RFU, ZRANB3 / Fold change vs veh, ZRANB3 / RFU, CUL4A / Fold change vs veh, CUL4A / RFU, CCNY / Fold change vs veh, CCNY / RFU, UFL1 / Fold change vs veh, UFL1 / RFU, COG3 / Fold change vs veh, COG3 / RFU, DIAPH2 / Fold change vs veh, DIAPH2 / RFU, SKA2 / Fold change vs veh, SKA2 / RFU, AFF3 / Fold change vs veh, AFF3 / RFU, LMF1 / Fold change vs veh, LMF1 / RFU, IPO11 / Fold change vs veh, IPO11 / RFU, DFFB / Fold change vs veh, DFFB / RFU, FOXP1 / Fold change vs veh, FOXP1 / RFU, CARD8 / Fold change vs veh, CARD8 / RFU, STRN3 / Fold change vs veh, STRN3 / RFU, ADK / Fold change vs veh, ADK / RFU, RASSF2 / Fold change vs veh, RASSF2 / RFU, WIPF1 / Fold change vs veh, WIPF1 / RFU, LARP1B / Fold change vs veh, LARP1B / RFU, RASA1 / Fold change vs veh, RASA1 / RFU, RB1 / Fold change vs veh, RB1 / RFU, PPFIA1 / Fold change vs veh, PPFIA1 / RFU, MAT2A / Fold change vs veh, MAT2A / RFU, CCT5 / Fold change vs veh, CCT5 / RFU, WDR92 / Fold change vs veh, WDR92 / RFU, CUX1 / Fold change vs veh, CUX1 / RFU, TTC7A / Fold change vs veh, TTC7A / RFU, TMEM135 / Fold change vs veh, TMEM135 / RFU, DEPTOR / Fold change vs veh, DEPTOR / RFU, CPM / Fold change vs veh, CPM / RFU, DNAJB6 / Fold change vs veh, DNAJB6 / RFU, CACNA2D3 / Fold change vs veh, CACNA2D3 / RFU, DTX4 / Fold change vs veh, DTX4 / RFU, TFCP2 / Fold change vs veh, TFCP2 / RFU, GMCL1 /// GMCL1P1 / Fold change vs veh, GMCL1 /// GMCL1P1 / RFU, AEBP2 / Fold change vs veh, AEBP2 / RFU, SNHG1 /// SNORD22 /// SNORD25 /// SNORD26 /// SNORD27 /// SNORD28 /// SNORD29 /// SNORD31 / Fold change vs veh, SNHG1 /// SNORD22 /// SNORD25 /// SNORD26 /// SNORD27 /// SNORD28 /// SNORD29 /// SNORD31 / Fold change (Aza/veh), C12orf56 (ProbeSet 11735607_a_at) / Fold change (ACY-1035/veh), C12orf56 (ProbeSet 11735607_a_at) / Fold change (Aza/veh), FGFR1OP (ProbeSet 11751329_s_at) / Fold change (ACY-1035/veh), FGFR1OP (ProbeSet 11751329_s_at) / Fold change (Aza/veh), VPS36 (ProbeSet 11739960_a_at) / Fold change (ACY-1035/veh), VPS36 (ProbeSet 11739960_a_at) / RFU SYPL1 (11715823_x_at) / Fold change /veh SYPL1 (11715823_x_at) / RFU IGFBP7 (11715501_s_at) / Fold change /veh IGFBP7 (11715501_s_at) / RFU REEP3 (11722064_at) / Fold change /veh REEP3 (11722064_at) / RFU IGLL1 (11728026_x_at) / Fold change /veh IGLL1 (11728026_x_at): dose or concentration left out as unconfirmed
Settings: MV-4-11 cells, 48 hours

In the case of `Nc1ncn([C@@H]2O[C@H](CO)[C@@H](O)[C@H]2O)c(=O)n1` [azacitidine], the “Fold change /veh WNT11 (11732464_a_at)” value is reported as 0.83.
